Patent USRE30456E, “2-Substituted phenyl-s-triazolo[5,1-a] isoquinoline compounds” (Gruppo Lepetit S.p.A., priority 1973, dated 1980)

System: carrageenin induced edema
Assay: carrageenin test in rats (anti-inflammatory activity)
Format: in vivo
From the text: The anti-inflammatory activity of some inventive compounds was evidenced by means of the carrageenin test in rats.

| SMILES | inhibition of the carrageenin induced edema (50 mg./kg. p.o.) | inhibition of the carrageenin induced edema (100 mg./kg. p.o.) |
| --- | --- | --- |
| Sc1nc2n(n1)CCc1ccccc1-2 [Example 38, 2-Sulfhydryl-5,6-dihydro-s-triazolo[5,1-a]isoquinoline] | about 35% |  |
| NC(=O)Nc1nc2n(n1)CCc1ccccc1-2 [Example 54, 2-Ureido-5,6-dihydro-s-triazolo[5,1-a]isoquinoline] |  | about 35% |
